From patent US20040106626A1, “6-Membered unsaturated heterocyclic compounds useful for selective inhibition of the coagulation cascade” (Pharmacia Corporation, priority 2001, published 2004)

How the values were obtained:
Type in all cases: biochemical
[1] = target: T1, recombinant soluble tissue factor and recombinant human factor VIIa (TF-VIIa) (Homo sapiens, UniProt P08709); experiment: TF-VIIa assay (chromogenic substrate hydrolysis); settings: reported only as less than or greater than 0.1 uM
T1 construct: conversion of coagulation factor VII to VIIa by factor Xa; purchased American Diagnostica, Greenwich CT; host or cells: soluble TF made in house in E. coli
Method in brief: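 Chromogenic read at OD405, compared with control for percent inhibition. Substrate N-methylsulfonyl-D-phe-gly-arg-p-nitroaniline at 0.4 mM is cleaved by recombinant human VIIa (2 nM) complexed with soluble TF (100 nM). Buffer: pH 8.0 Tris-HCl 50 mM, CaCl2 5 mM, NaCl 100 mM, BSA 0.1%.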

Human factor Xa = target: T2, Human factor Xa (Homo sapiens, UniProt P00742); experiment: Xa assay (chromogenic substrate S-2765); settings: reported only as less than or greater than 30 uM; read-out: Factor Xa (II) IC50
T2 construct: purchased Enzyme Research Laboratories, South Bend Ind
Method in brief: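 Chromogenic readout: S-2765 hydrolysis (0.15 mM) by 0.3 nM human FXa was monitored at 405 nm after 60 min at room temperature, with a time-zero background read. Buffer: 50 mM Tris-HCl, pH 8.0, 100 mM NaCl, 0.1% BSA. Inhibition is relative to buffer-only controls.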

Human thrombin = target: T3, Human thrombin (Homo sapiens, UniProt P00734); experiment: Thrombin assay (chromogenic substrate); settings: reported only as less than or greater than 30 uM; read-out: Thrombin (II) IC50
T3 construct: converts prothrombin (II) to thrombin (IIa); purchased Calbiochem, La Jolla, Calif
Method in brief: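 Percent inhibition derived by comparing OD405 nm of compound-treated and control samples. Thrombin cleavage of a p-nitroanilide chromogenic substrate provides the signal.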

[2] = tested on: Normal human pooled plasma; experiment: Prothrombin time (PT) clotting assay; settings: concentration at which prothrombin time is prolonged by 2x normal, reported as less than or greater than 50 uM
Method in brief: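 Normal human pooled plasma incubated with 100 uM compound or saline, then thromboplastin (human tissue factor) added and clotting time recorded in a coagulation machine. Compounds exceeding 3× normal PT (11.0 s) are titrated to find the concentration doubling PT.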

T1 sequence (P08709 213-466 limits assumed): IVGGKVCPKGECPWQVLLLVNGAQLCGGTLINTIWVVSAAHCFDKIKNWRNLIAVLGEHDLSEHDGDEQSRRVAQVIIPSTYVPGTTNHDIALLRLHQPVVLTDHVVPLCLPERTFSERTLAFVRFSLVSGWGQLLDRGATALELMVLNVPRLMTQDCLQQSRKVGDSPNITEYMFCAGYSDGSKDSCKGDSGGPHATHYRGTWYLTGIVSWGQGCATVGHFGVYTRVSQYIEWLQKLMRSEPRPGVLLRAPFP
T1 sequence (P08709 61-212 limits assumed): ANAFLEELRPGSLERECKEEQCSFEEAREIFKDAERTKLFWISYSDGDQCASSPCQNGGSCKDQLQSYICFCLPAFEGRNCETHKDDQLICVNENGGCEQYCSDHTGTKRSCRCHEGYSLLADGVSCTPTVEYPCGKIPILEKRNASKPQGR
T1 sequence (P13726 33-251 partner limits assumed): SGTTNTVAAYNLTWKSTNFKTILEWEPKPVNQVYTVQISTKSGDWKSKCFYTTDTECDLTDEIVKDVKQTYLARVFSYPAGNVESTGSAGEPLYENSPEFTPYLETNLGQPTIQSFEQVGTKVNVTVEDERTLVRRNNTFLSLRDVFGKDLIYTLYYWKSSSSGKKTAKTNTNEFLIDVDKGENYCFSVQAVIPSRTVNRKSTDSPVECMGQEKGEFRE
T2 sequence (P00742 235-488 limits assumed): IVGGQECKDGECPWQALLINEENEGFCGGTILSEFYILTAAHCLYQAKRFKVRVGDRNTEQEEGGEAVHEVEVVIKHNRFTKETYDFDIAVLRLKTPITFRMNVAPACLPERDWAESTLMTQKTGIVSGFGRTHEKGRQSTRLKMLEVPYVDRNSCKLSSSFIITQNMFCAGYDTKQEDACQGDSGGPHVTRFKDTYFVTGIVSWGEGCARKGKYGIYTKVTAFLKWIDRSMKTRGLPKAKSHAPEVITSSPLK
T2 sequence (P00742 41-179 limits assumed): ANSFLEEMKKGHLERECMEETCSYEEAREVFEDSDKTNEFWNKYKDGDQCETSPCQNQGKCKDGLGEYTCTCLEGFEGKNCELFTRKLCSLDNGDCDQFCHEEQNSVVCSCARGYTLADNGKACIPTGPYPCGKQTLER

`COC(=O)c1ccc(CNC(=O)c2cc(N)cc(-c3cnc(NC(C)C)c(=O)n3CC(=O)NCc3ccc(C(=N)N)cc3)c2)cc1.O=C(O)C(F)(F)F` [Example 169] was tested, and the IC50 [1] was < 0.1 µM, the IC50 (Human factor Xa) was > 30 µM and the IC50 (Human thrombin) was < 30 µM. The “PT (Prothrombin time) 2xPT” value [2] was <50.0 µM.

`Cc1cc(N)cc(-c2cnc(NC(C)C)c(=O)n2CC(=O)NCc2ccc(C(=N)N)cc2)c1.Cl.Cl` [Example 170] was tested, and the IC50 [1] was < 0.1 µM, the IC50 (Human factor Xa) was > 30 µM and the IC50 (Human thrombin) was > 30 µM. For the same compound, the “PT (Prothrombin time) 2xPT” value [2] was <50.0 µM.

With `CC(C)Nc1ncc(-c2cc(N)cc(C(=O)NCc3ccc(C(=O)O)cc3)c2)n(CC(=O)NCc2ccc(C(=N)N)cc2)c1=O.O=C(O)C(F)(F)F.O=C(O)C(F)(F)F` [Example 171] the IC50 [1] was < 0.1 µM, the IC50 (Human factor Xa) was > 30 µM and the IC50 (Human thrombin) was > 30 µM. The “PT (Prothrombin time) 2xPT” value [2] was <50.0 µM.

In the case of `CC(C)Nc1ncc(-c2cc(N)cc(C(=O)NCCC(=O)O)c2)n(CC(=O)NCc2ccc(C(=N)N)cc2)c1=O.O=C(O)C(F)(F)F.O=C(O)C(F)(F)F` [Example 172], the IC50 [1] is reported as < 0.1 µM, the IC50 (Human factor Xa) is reported as > 30 µM and the IC50 (Human thrombin) is reported as > 30 µM. For the same compound, the “PT (Prothrombin time) 2xPT” value [2] was <50.0 µM.

In the case of `COc1ccc(CNC(=O)c2cc(N)cc(-c3cnc(NC(C)C)c(=O)n3CC(=O)NCc3ccc(C(=N)N)cc3)c2)cc1.O=C(O)C(F)(F)F.O=C(O)C(F)(F)F` [Example 174], the IC50 [1] is reported as < 0.1 µM, the IC50 (Human factor Xa) is reported as > 30 µM and the IC50 (Human thrombin) is reported as > 30 µM. For the same compound, the “PT (Prothrombin time) 2xPT” value [2] was <50.0 µM.

For `CC(=O)Oc1cc(N)cc(-c2cnc(NC(C)C)c(=O)n2CC(=O)NCc2ccc(C(=N)N)cc2)c1.O=C(O)C(F)(F)F` [Example 175], the IC50 [1] was < 0.1 µM, the IC50 (Human factor Xa) was > 30 µM and the IC50 (Human thrombin) was > 30 µM. For the same compound, the “PT (Prothrombin time) 2xPT” value [2] was <50.0 µM.

With `CC(C)Nc1ncc(-c2cc(N)cc(C(=O)NCc3ccc(O)cc3)c2)n(CC(=O)NCc2ccc(C(=N)N)cc2)c1=O.O=C(O)C(F)(F)F` [Example 176] the IC50 [1] was < 0.1 µM, the IC50 (Human factor Xa) was > 30 µM and the IC50 (Human thrombin) was > 30 µM. For the same compound, the “PT (Prothrombin time) 2xPT” value [2] was <50.0 µM.

For `COc1cccc(CNC(=O)c2cc(N)cc(-c3cnc(NC(C)C)c(=O)n3CC(=O)NCc3ccc(C(=N)N)cc3)c2)c1.O=C(O)C(F)(F)F` [Example 177], the IC50 [1] was < 0.1 µM, the IC50 (Human factor Xa) was > 30 µM and the IC50 (Human thrombin) was > 30 µM. The “PT (Prothrombin time) 2xPT” value [2] was <50.0 µM.

With `N=C(N)c1ccc(CNC(=O)Cn2c(-c3cc(N)cc(O)c3)cnc(NC3CC3)c2=O)cc1.O=C(O)C(F)(F)F.O=C(O)C(F)(F)F` [Example 179] the IC50 [1] was < 0.1 µM, the IC50 (Human factor Xa) was > 30 µM and the IC50 (Human thrombin) was > 30 µM. For the same compound, the “PT (Prothrombin time) 2xPT” value [2] was <50.0 µM.

In the case of `CC(C)Nc1ncc(-c2cc(N)cc(O)c2)n(CC(=O)NCc2ccc(C(=N)N)c(O)c2)c1=O.O=C(O)C(F)(F)F` [Example 181, 2-[6-(3-amino-5-hydroxyphenyl)-3-(isopropylamino)-2-oxopyrazin-1 (2H)-yl]-N-{4-[amino(imino)methyl]-3-hydroxybenzyl}acetamide], the IC50 [1] is reported as > 0.1 µM, the IC50 (Human factor Xa) is reported as > 30 µM and the IC50 (Human thrombin) is reported as > 30 µM. The “PT (Prothrombin time) 2xPT” value [2] was >50.0 µM.

In the case of `CC[C@@H](C)NC(=O)c1cc(N)cc(-c2cnc(NC(C)C)c(=O)n2CC(=O)NCc2ccc(C(=N)N)cc2OC)c1.O=C(O)C(F)(F)F.O=C(O)C(F)(F)F` [Example 182, 3-amino-5-[1-[2-({4-[amino(imino)methyl]-2-methoxybenzyl}amino)-2-oxoethyl]-5-(isopropylamino)-6-oxo-1,6-dihydropyrazin-2-yl]-N-[(1R)-1-methylpropyl]benzamide], the IC50 [1] is reported as < 0.1 µM, the IC50 (Human factor Xa) is reported as > 30 µM and the IC50 (Human thrombin) is reported as < 30 µM. The “PT (Prothrombin time) 2xPT” value [2] was <50.0 µM.

For `CC[C@@H](C)NC(=O)c1cc(N)cc(-c2cnc(NC(C)C)c(=O)n2CC(=O)NCc2c(F)c(O)c(C(=N)N)c(F)c2F)c1.Cl.Cl` [Example 185, 3-[1-[2-({4-[amino(imino)methyl]-2,3,6-trifluoro-5-hydroxybenzyl}amino)-2-oxoethyl]-5-(isopropylamino)-6-oxo-1,6-dihydropyrazin-2-yl]-N-[(1R)-1-methylpropyl]-5-aminobenzamide Dihydrochloride], the IC50 [1] was < 0.1 µM, the IC50 (Human factor Xa) was > 30 µM and the IC50 (Human thrombin) was > 30 µM. The “PT (Prothrombin time) 2xPT” value [2] was <50.0 µM.

For `CC(C)Nc1ncc(-c2cc(N)cc(C(=O)NCc3ccc(F)c(O)c3)c2)n(CC(=O)NCc2ccc(C(=N)N)cc2)c1=O.O=C(O)C(F)(F)F` [Example 186], the IC50 [1] was < 0.1 µM, the IC50 (Human factor Xa) was > 30 µM and the IC50 (Human thrombin) was > 30 µM. For the same compound, the “PT (Prothrombin time) 2xPT” value [2] was <50.0 µM.

In the case of `CCCCOC(=O)c1cc(N)cc(-c2cnc(NC(C)C)c(=O)n2CC(=O)NCc2ccc(C(=N)N)cc2)c1.O=C(O)C(F)(F)F` [Example 187], the IC50 [1] is reported as < 0.1 µM, the IC50 (Human factor Xa) is reported as > 30 µM and the IC50 (Human thrombin) is reported as > 30 µM. The “PT (Prothrombin time) 2xPT” value [2] was <50.0 µM.

With `CC[C@H](C)NC(=O)c1cc(N)cc(-c2cnc(N[C@@H](C)C(C)C)c(=O)n2CC(=O)NCc2ccc(C(=N)N)cc2)c1.O=C(O)C(F)(F)F.O=C(O)C(F)(F)F` [Example 190] the IC50 [1] was < 0.1 µM, the IC50 (Human factor Xa) was > 30 µM and the IC50 (Human thrombin) was < 30 µM. For the same compound, the “PT (Prothrombin time) 2xPT” value [2] was <50.0 µM.

`CC[C@H](C)NC(=O)c1cc(N)cc(-c2cnc(N[C@@H](C)CC)c(=O)n2CC(=O)NCc2ccc(C(=N)N)cc2)c1.O=C(O)C(F)(F)F.O=C(O)C(F)(F)F` [Example 191] was tested, and the IC50 [1] was < 0.1 µM, the IC50 (Human factor Xa) was > 30 µM and the IC50 (Human thrombin) was < 30 µM. The “PT (Prothrombin time) 2xPT” value [2] was <50.0 µM.

With `CCCNc1ncc(-c2cc(N)cc(C(=O)N[C@@H](C)CC)c2)n(CC(=O)NCc2ccc(C(=N)N)cc2)c1=O.O=C(O)C(F)(F)F.O=C(O)C(F)(F)F` [Example 192] the IC50 [1] was < 0.1 µM, the IC50 (Human factor Xa) was > 30 µM and the IC50 (Human thrombin) was < 30 µM. For the same compound, the “PT (Prothrombin time) 2xPT” value [2] was <50.0 µM.

In the case of `CC[C@H](C)NC(=O)c1cc(N)cc(-c2cnc(NC(C)C)c(=O)n2CC(=O)NCc2c(O)cc(C(=N)N)cc2O)c1` [Example 193], the IC50 [1] is reported as > 0.1 µM, the IC50 (Human factor Xa) is reported as > 30 µM and the IC50 (Human thrombin) is reported as > 30 µM. For the same compound, the “PT (Prothrombin time) 2xPT” value [2] was <50.0 µM.

With `CCNc1ncc(-c2cc(N)cc(C(=O)N[C@@H](C)CC)c2)n(CC(=O)NCc2ccc(C(=N)N)cc2)c1=O.O=C(O)C(F)(F)F.O=C(O)C(F)(F)F` [Example 194] the IC50 [1] was < 0.1 µM, the IC50 (Human factor Xa) was > 30 µM and the IC50 (Human thrombin) was > 30 µM. For the same compound, the “PT (Prothrombin time) 2xPT” value [2] was <50.0 µM.

In the case of `CC[C@H](C)NC(=O)c1cc(N)cc(-c2cnc(NC(C)C)c(=O)n2CC(=O)NCc2c(O)cc(C(=N)N)cc2OC)c1` [Example 195], the IC50 [1] is reported as < 0.1 µM, the IC50 (Human factor Xa) is reported as > 30 µM and the IC50 (Human thrombin) is reported as > 30 µM. The “PT (Prothrombin time) 2xPT” value [2] was <50.0 µM.

In the case of `CC[C@@H](C)NC(=O)c1cc(N)cc(-c2cnc(NC(C)C)c(=O)n2CC(=O)NCc2c(O)cc(C(=N)N)cc2OC)c1` [Example 198], the IC50 [1] is reported as < 0.1 µM, the IC50 (Human factor Xa) is reported as > 30 µM and the IC50 (Human thrombin) is reported as > 30 µM. The “PT (Prothrombin time) 2xPT” value [2] was <50.0 µM.

For `CC[C@@H](C)NC(=O)c1cc(N)cc(-c2cnc(NC(C)C)c(=O)n2CC(=O)NCc2c(O)cc(C(=N)N)cc2O)c1` [Example 199], the IC50 [1] was < 0.1 µM, the IC50 (Human factor Xa) was > 30 µM and the IC50 (Human thrombin) was > 30 µM. The “PT (Prothrombin time) 2xPT” value [2] was <50.0 µM.

In the case of `CC[C@H](C)NC(=O)c1cc(N)cc(-c2cnc(N[C@H](C)C(C)C)c(=O)n2CC(=O)NCc2ccc(C(=N)N)cc2)c1.O=C(O)C(F)(F)F.O=C(O)C(F)(F)F` [Example 202], the IC50 [1] is reported as < 0.1 µM, the IC50 (Human factor Xa) is reported as > 30 µM and the IC50 (Human thrombin) is reported as < 30 µM. For the same compound, the “PT (Prothrombin time) 2xPT” value [2] was <50.0 µM.

With `CC[C@@H](C)Nc1ncc(-c2cc(N)cc(C(=O)N[C@@H](C)CC)c2)n(CC(=O)NCc2ccc(C(=N)N)cc2)c1=O.O=C(O)C(F)(F)F.O=C(O)C(F)(F)F` [Example 203] the IC50 [1] was < 0.1 µM, the IC50 (Human factor Xa) was > 30 µM and the IC50 (Human thrombin) was < 30 µM. The “PT (Prothrombin time) 2xPT” value [2] was <50.0 µM.
